Experimental data from PubChem BioAssay (NCI).
Values joined by “and” are separate entries in the source; they are usually repeats but may differ in a detail not shown here. Equal entries are not always repeated.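 Exposure lasted 48 hours, with cells grown in 96-well plates and compounds tested at five concentrations. GI50 = concentration required for 50% inhibition of growth. Definition used: TGI = concentration required for complete inhibition of growth.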

Key:
Assay in all cases: growth of human tumour cells (NCI), 48 h
[1] = system: A498 renal
[2] = system: IGROV1 ovarian
[3] = system: M14 melanoma
[4] = system: MDA-MB-231 breast
[5] = system: MDA-MB-435
[6] = system: MOLT-4 leukemia
[7] = system: OVCAR-3 ovarian
[8] = system: SR leukemia
[9] = system: U251 CNS
[10] = system: UO-31 renal

Structure (SMILES) | GI50 [1] [µM] | TGI [1] [µM] | GI50 [2] [µM] | TGI [2] [µM] | GI50 [3] | TGI [3] [µM] | GI50 [4] [µM] | TGI [4] [µM] | GI50 [5] | TGI [5] | GI50 [6] [µM] | TGI [6] [µM] | GI50 [7] [µM] | TGI [7] [µM] | GI50 [8] [µM] | TGI [8] [µM] | GI50 [9] [µM] | TGI [9] [µM] | GI50 [10] [µM] | TGI [10] [µM]
COc1cc(-c2cc(/C=C/C(=O)c3ccc(F)c(F)c3)[nH]n2)cc(OC)c1OC | 2.11 | 7.13 | 3.62 | 87 | 2.7 µM | 11.9 | 1.64 | 4.58 | 2.88 µM | 13.3 µM | 2.72 | 9.09 | 2.39 | 6.25 | 2.92 | > 100 | 2.9 | 15.7 | 2.63 | 14.2
CCN(CC)c1ccc(/C=C/C(=O)c2ccc(Nc3nc(Nc4ccccc4)nc(Nc4ccccc4)n3)cc2)cc1 | 7.44 | 48 | 4.64 | > 100 | 3.02 µM | > 100 | 13.5 | > 100 | 9.26 µM | > 100 µM | 2.08 | 12 | 2.12 | 20 | 1.03 | 3.86 | 4.82 | > 100 | 2.69 | > 100
COc1ccc(C(O)c2cc3c(N)c(C(=O)Nc4ccc(Cl)cc4)sc3nc2C)cc1 (stereo not given) | 3 | 12.4 | 3.22 | 28.6 | 1.74 µM | 29.9 | 4.9 | 28.8 | 0.317 µM | 1.17 µM | 3.09 | > 100 | 2 | 4.78 | 0.44 | > 100 | 2.28 | 15.8 | 3.8 | 23
COc1cc(/C=C2\C(=O)N(Cc3ccc(Cl)cc3)c3ccccc32)cc(OC)c1OC | 1.54 | 7.97 | 2.73 | 10.3 | 2.45 µM | 7.01 | 2.48 | 18.4 | 2.32 µM | 7.03 µM | 2.2 | 5.97 | 1.57 | 3.31 | 1.51 | 4.19 | 1.75 | 3.44 | 2.06 | 6.8
CC(C)/C=C1\CCC(CN(C)C)C1=O (stereo not given) | – | 16.7 | – | 11.4 | – | 5.52 | – | 3.01 | – | 3.01 µM | – | 3.48 | – | 7.97 | – | 4.53 | – | 32.7 | – | 16.5
N#CCn1c(=O)c(Oc2ccc(F)cc2F)cc2cnc(NC3CCOCC3)nc21 | 24.7 | > 25 | > 25 | > 25 | > 25 µM | > 25 | > 25 | > 25 | > 25 µM | > 25 µM | > 25 | > 25 | > 25 | > 25 | > 25 | > 25 | > 25 | > 25 | > 19.8 | > 25
O=C(Nc1ccc(Oc2ccc3nc(NC(=O)c4ccco4)[nH]c3c2)cc1)Nc1cc(C(F)(F)F)ccc1F | 0.929 | 5.4 | 1.23 | 10.2 | 0.786 µM | 5.16 | 1.09 | 5.77 | 0.973 µM | 7.71 µM | 2.21 | 15.7 | 2.9 | 7.22 | 0.964 | 7.36 | 3.33 | > 15.3 | 0.874 | 5.27
CC1CC2C3CCC4=CC(=O)C=CC4(C)C3(F)C(O)CC2(C)C1(O)C(=O)COP(=O)(O)O (stereo not given) | > 500 | > 500 | > 500 | > 500 | > 500 µM | > 500 | > 500 | > 500 | > 500 µM | > 500 µM | > 500 | > 500 | > 500 | > 500 | – | > 100 | > 500 | > 500 | > 500 | > 500
CC(=O)Nc1ccc(C(=O)CCl)cc1 | – | – | 14.8 | 31 | 2.56 µM | 7.38 | 4.02 | 14.8 | 4.74 µM | 16.6 µM | 2.92 | 7.06 | 2.55 | 5.82 | 2.63 | 7.33 | 12.4 | 25.1 | 1.71 | 3.26
C=C1C[C@H]2C=Nc3cc(OCCCOc4cc5c(cc4OC)C(=O)N4CC(=C)C[C@H]4C=N5)c(OC)cc3C(=O)N2C1 | – | 0.0578 | – | 0.0341 | 0.00858 µM and < 0.013 µM | 0.0846 | 0.0185 | 0.0452 | 0.0134 µM and < 0.0148 µM | 0.0339 µM and < 0.215 µM | – | 0.00105 | – | 0.2 | – | 0.218 | – | 3.3 | – | 0.289
CC(C)=CCc1cc2c(cc1O)C1=C(C(=O)C3=C(C1=O)S(=O)(=O)CCN3)C(C=C(C)C)O2 (stereo not given) | 3.54 | 5.96 | 0.959 | 4.76 | 0.35 µM | 1.2 | 0.374 | 1.61 | 0.061 µM | 0.227 µM | 0.718 | 3.99 | 0.403 | 1.37 | 0.87 | 10.9 | 1.24 | 3.74 | 1.82 | 4.59
O=C1Nc2ccc(Cl)cc2/C1=C\c1c(-c2ccc(Cl)cc2)nc2sc(C3CC3)nn12 | 1.05 | 6.42 | 4.12 | 15.8 | 5.77 µM | 21.8 | 2.67 | 13 | 9.36 µM | 28.9 µM | 44.9 | > 100 | 4.16 | 15.2 | 12.6 | 75.8 | 3.29 | 13.1 | 2.63 | 14.8
